From US8759499B2, “Lipids for transfection of Eukaryotic cells” (Molecular Transfer, Inc., priority 2005, dated 2014)
Ends that are not written are not given here.

Tested on: CHO-K1, NIH3T3, A549, Cos-7 and BE(2)C
Assay: Transfection with β-galactosidase reporter plasmid pCMV•SPORT-β-gal, "before" and "after" peptide protocols, β-gal activity (ONPG, OD 405)
Type: cell-based
Settings: FIG. 1-5
Protocol: Transfection of CHO-K1, NIH3T3, A549, Cos-7 and BE(2)C with β-galactosidase reporter plasmid pCMV•SPORT-β-gal was carried out as follows:
Cells were plated in a 96-well plates with 100 μl of media containing 10% fetal calf serum the day before transfection such that a desired confluency (70%-95%) was achieved. The following day a transfection agent that includes a liposomal composition of the lipid DMTS (Dimyrstyl-tetrahydroxy-spermine) and DOPE (2:1 DMTS:DOPE) and DNA were mixed in Opti-MEM to form DNA/lipid complexes. Complexes were formed by adding various amounts of lipids (0.1 to 0.35 μl) to 100 μl of Opti-MEM. DNA (100 ng) was added to 100 μl Opti-MEM. The DNA and lipid solutions were then mixed to form DNA lipid complexes. The complexes were incubated for at least 15 minutes after which added to the DNA lipid complexes, was 20 μl of various amounts of a peptide having the sequence of a Prototypical Avian reovirus fusogenic peptide provided herein, as follows:
and incubated for 15 minutes to form a DNA/lipid/peptide complex. […] Total activity was determined by reading the OD at 405 using Bio-Rad Benchmark Microplate Spectrophotometer. […]
were added to the DNA mixture and incubated for 15 minutes. […] Total activity was determined by reading the OD at 405 using Bio-Rad Benchmark Microplate Spectrophotometer.

## RMPPGSCNGATAVFGNVHKKKKKKKKKKKKKKKK [peptide, Prototypical Avian reovirus fusogenic peptide with 16 lysine residues]
DMTS:DOPE 2:1 liposomes plus peptide, before or after protocol
  amount of lipid required to enhance transfection: reduced
DMTS:DOPE 2:1 liposomes, peptide added to DNA before lipid, or to DNA/lipid complex
  effect of adding the peptide on transfection: enhancement of transfection
